# Assay: Compound was evaluated for its half life period.
# Assay type: ADME
row,half-life [min],SMILES
1,1.63,COc1ccc(NC(=O)/C=C\c2ccccc2OC(C)=O)cc1
2,16.3,CC(=O)Oc1ccccc1/C=C\C(=O)NCc1ccccc1
3,31.2,CC(=O)Oc1ccccc1/C=C\C(=O)N(C)Cc1ccccc1

# Reference: ChEMBL document CHEMBL1129017, “Chemical feasibility studies of a potential coumarin-based prodrug system” (Bioorg Med Chem Lett, 1996)
